The test system of assay [1] is MV4-11. Nature of the assay: Antiproliferative activity against human MV4-11 cells assessed as inhibition of cell growth incubated for 240 hrs by MTS assay. It counts as functional, cell-based. The following applies: MV4-11, 240 h. (In general: Tetrazolium assays rely on reduction of a dye to a coloured formazan, in cell work by metabolically active cells.)
The target of assay [2] is T1, Amine oxidase [flavin-containing] A (Homo sapiens, UniProt P21397).
T1 sequence (P21397 whole entry): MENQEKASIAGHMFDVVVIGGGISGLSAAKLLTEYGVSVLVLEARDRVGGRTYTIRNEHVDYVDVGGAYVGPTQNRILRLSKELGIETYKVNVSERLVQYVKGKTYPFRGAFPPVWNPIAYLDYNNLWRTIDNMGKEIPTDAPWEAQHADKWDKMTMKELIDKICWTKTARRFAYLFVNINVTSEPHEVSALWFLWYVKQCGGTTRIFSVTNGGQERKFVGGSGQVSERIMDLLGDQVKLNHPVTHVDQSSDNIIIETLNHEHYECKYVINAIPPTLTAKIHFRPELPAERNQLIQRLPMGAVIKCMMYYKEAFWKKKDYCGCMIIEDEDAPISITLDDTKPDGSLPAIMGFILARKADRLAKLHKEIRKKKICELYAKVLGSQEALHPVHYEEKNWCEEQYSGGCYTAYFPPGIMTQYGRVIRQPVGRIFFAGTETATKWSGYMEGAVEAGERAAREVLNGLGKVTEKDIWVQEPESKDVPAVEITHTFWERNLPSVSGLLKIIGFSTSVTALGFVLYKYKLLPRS
Description: biochemical.
Description: Inhibition of human recombinant MAO-A expressed in baculovirus infected BTI insect cells using luminogenic MAO substrate incubated for 1 hr by luciferin-based luminescence assay

Assay [3] deals with T2, Amine oxidase [flavin-containing] B (Homo sapiens, UniProt P27338).
T2 sequence (P27338 whole entry): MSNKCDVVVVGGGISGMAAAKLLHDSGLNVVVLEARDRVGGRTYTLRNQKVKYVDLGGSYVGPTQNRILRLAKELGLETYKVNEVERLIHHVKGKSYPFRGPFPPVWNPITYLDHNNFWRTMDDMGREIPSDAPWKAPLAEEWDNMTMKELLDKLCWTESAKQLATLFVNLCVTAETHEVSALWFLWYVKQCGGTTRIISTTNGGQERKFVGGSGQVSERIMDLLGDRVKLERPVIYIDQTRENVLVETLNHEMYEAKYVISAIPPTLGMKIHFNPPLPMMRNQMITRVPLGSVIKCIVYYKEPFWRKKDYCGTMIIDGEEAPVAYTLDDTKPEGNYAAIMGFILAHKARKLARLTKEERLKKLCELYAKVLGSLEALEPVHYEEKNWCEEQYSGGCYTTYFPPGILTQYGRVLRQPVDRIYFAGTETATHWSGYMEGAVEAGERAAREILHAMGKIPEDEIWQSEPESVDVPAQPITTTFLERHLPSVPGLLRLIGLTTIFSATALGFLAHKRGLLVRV
Nature of the assay: biochemical.
Description: Inhibition of human recombinant MAO-B expressed in baculovirus infected BTI insect cells using luminogenic MAO substrate incubated for 1 hr by luciferin-based luminescence assay

For the next assay, the system named is RPMI-8226. Nature of the assay: Antiproliferative activity against human RPMI-8226 cells assessed as inhibition of cell growth incubated for 240 hrs by MTS assay. The conditions noted are these: RPMI-8226, 240 h. It is filed as functional, cell-based.
For assay [4], the target named is T3, Lysine-specific histone demethylase 2 (Homo sapiens, UniProt Q8NB78).
T3 sequence (Q8NB78 whole entry): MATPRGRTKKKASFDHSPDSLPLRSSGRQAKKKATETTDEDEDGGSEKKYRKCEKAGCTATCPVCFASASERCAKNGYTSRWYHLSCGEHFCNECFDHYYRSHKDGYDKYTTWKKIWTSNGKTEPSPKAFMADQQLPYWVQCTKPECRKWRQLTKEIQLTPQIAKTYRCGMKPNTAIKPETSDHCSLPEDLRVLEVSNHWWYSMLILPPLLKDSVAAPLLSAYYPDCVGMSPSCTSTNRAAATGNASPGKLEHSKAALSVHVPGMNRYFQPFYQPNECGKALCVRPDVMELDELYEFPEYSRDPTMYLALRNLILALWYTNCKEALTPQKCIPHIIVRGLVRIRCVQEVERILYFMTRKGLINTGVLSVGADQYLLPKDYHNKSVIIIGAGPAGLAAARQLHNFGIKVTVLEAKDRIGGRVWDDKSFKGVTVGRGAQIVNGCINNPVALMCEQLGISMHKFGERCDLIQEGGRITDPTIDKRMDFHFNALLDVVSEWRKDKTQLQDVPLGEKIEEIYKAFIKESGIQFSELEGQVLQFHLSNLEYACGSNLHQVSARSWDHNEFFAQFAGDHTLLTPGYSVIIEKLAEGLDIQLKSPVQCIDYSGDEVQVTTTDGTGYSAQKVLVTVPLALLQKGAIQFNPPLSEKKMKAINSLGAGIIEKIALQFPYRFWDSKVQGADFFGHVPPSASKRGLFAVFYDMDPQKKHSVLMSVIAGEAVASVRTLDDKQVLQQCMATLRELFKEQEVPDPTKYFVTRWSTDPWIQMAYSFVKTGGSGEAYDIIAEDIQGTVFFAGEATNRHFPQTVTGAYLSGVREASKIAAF
Nature of the assay: Inhibition of human LSD2 using H3K4Me2 peptide as substrate incubated for 60 min by peroxidase-coupled method.

Assay [5] concerns the target T3, Lysine-specific histone demethylase 2. Description: Inhibition of recombinant human full length LSD2 using biotinylated H3K4Me2 peptide as substrate by TR-FRET assay. Background: TR-FRET usually uses a lanthanide donor and a delayed reading to cut background.
Assay [6] in a line: Upregulation of CD86 expression in human MV4-11 cells assessed as fold change in CD86 expression at IC50 incubated for 24 hrs by qRT-PCR analysis relative to control. It counts as functional. For orientation: In qPCR the cycle at which signal appears reflects the starting amount.
In assay [7] the test system is MV4-11. Description: Activation of CD86 expression in human MV4-11 cells incubated for 24 hrs by qRT-PCR analysis. It counts as functional, cell-based. The conditions noted are these: MV4-11, 24 h.
Assay [8] addresses T3, Lysine-specific histone demethylase 2. Description: Inhibition of human LSD2.
Assay [9] addresses T1, Amine oxidase [flavin-containing] A. Nature of the assay: Inhibition of human MAOA.
Assay [10] concerns the target T2, Amine oxidase [flavin-containing] B. Nature of the assay: Inhibition of human MAOB.
In assay [11] the test system is MV4-11. Description: Induction of differentiation of human MV4-11 cells assessed as morphological changes by measuring reduction in nuclear to cytoplasmic ratio at 5 uM incubated for 240 hrs by Wright-Giemsa staining based microscopy. It is filed as functional, cell-based.
The test system of assay [12] is MV4-11. Nature of the assay: Induction of differentiation of human MV4-11 cells assessed as morphological changes by measuring segmented nucleus at 5 uM incubated for 240 hrs by Wright-Giemsa staining based microscopy. It counts as functional, cell-based.
In assay [13] the target is Lysine-specific histone demethylase 1A (Homo sapiens) (UniProt O60341). The following applies: dose 300.0 nM, time 1.0 hrs.

Calls of active or inactive are those of the source. No cut-off for these calls is given here.

A word on the IC50: it is the midpoint of a concentration-inhibition curve. In general, Ki refers to a measure of affinity in units of concentration, obtained from inhibition or displacement. The low end stands for a stronger hold on the target, the high end for a looser hold on the target. The term EC50 denotes the concentration needed to bring the measured effect to its halfway point. A higher EC50 goes with lower potency in that assay.

On to `CCC(=O)N1CCc2cc(C3CC3NCC3CCNCC3)ccc21` (trans isomer), for which the values for the concentration for half-maximal inhibition (IC50) (with MV4-11 [1]; in assay [2]; in assay [3]) were 7.66 µM, more than 100 µM and more than 100 µM, respectively.
As to `O=C(Cc1ccccc1)N1CCc2cc(C3CC3NCC3CCNCC3)ccc21` (trans isomer), the IC50 in assay [2] and in [3] was more than 100 µM throughout.
As to `N[C@H]1CC[C@H](CNC2CC2c2ccc3c(c2)CCN3S(=O)(=O)c2ccccc2)CC1` (some centres not stated), the IC50 in [2] came to 96.3 µM.
Take `O=S(=O)(N1CCc2cc(C3CC3NCC3CCNCC3)ccc21)C(F)(F)F` (trans isomer): the IC50 in assay [2] came out at 8640 µM.
Regarding `CCCC(=O)N1CCc2cc(C3CC3NCC3CCNCC3)ccc21` (configuration not stated), the IC50 in the assay with MV4-11 [1] was 18.8 µM; in [2], more than 100 µM; in assay [3], more than 100 µM.
In the case of `CC1(CNC2CC2c2ccc3c(c2)CCN3S(=O)(=O)c2ccccc2)CCNCC1` (trans isomer), the IC50 is 100 µM in assay [2] and more than 100 µM in [3].
With `O=C(c1ccccc1)N1CCc2cc(C3CC3NCC3CCNCC3)ccc21` (trans isomer), the 50% inhibitory concentration (IC50) in the assay on MV4-11 [1] is 4.14 µM; in assay [2] it was more than 100 µM.
For `CCCCC(=O)N1CCc2cc(C3CC3NCC3CCNCC3)ccc21` (configuration not stated), the IC50 in assay [2] and in [3] was more than 100 µM in each case.
For `CS(=O)(=O)N1CCc2cc(C3CC3NCC3CCNCC3)ccc21` (configuration not stated), the IC50 with MV4-11 [1] is 2.39 µM; in assay [2] it was more than 100 µM; in assay [3], more than 100 µM.
With `COc1cccc(S(=O)(=O)N2CCc3cc(C4CC4NCC4CCNCC4)ccc32)c1` (trans isomer), the IC50 in assay [3] was more than 100 µM.
Turning to `CC(C)(C)C(=O)N1CCc2cc(C3CC3NCC3CCNCC3)ccc21` (trans isomer), the half-inhibitory concentration (IC50) with MV4-11 [1] was 1.23 µM; with RPMI-8226, more than 20 µM; in [2], more than 100 µM.
As to `O=S(=O)(c1ccc(-c2ccccc2)cc1)N1CCc2cc(C3CC3NCC3CCNCC3)ccc21` (trans isomer), the IC50 in [2] was more than 100 µM.
Turning to `O=S(=O)(c1ccccc1)N1CCc2cc(C3CC3NC3CC4(CCNCC4)C3)ccc21` (trans isomer), the concentration for half-maximal inhibition (IC50) in [2] and in assay [3] was more than 100 µM throughout.
Consider `O=S(=O)(C1CCCCC1)N1CCc2cc(C3CC3NCC3CCNCC3)ccc21` (configuration not stated), for which the 50% inhibitory concentration (IC50) in [2] and in [3] was more than 100 µM throughout.
Consider `O=S(=O)(c1ccccc1)N1CCc2cc(C3CC3NCCC3CCNCC3)ccc21` (trans isomer), for which the half-maximal inhibitory concentration (IC50) with MV4-11 [1] is 1.21 µM; in the assay with RPMI-8226, more than 20 µM; in [2] it was more than 100 µM; in assay [3] it was more than 100 µM.
As for `CCS(=O)(=O)N1CCc2cc(C3CC3NCC3CCNCC3)ccc21` (trans isomer), the IC50 in the assay with MV4-11 [1] was 2.52 µM; in assay [2] it was more than 100 µM; in [3] it was more than 100 µM.
In assay [4], `N[C@@H]1C[C@H]1c1ccc(NC(=O)c2ccccc2)cc1` returned a Ki of 61 µM.
With `O=C(O)c1ccc(CN2CCC(CN[C@@H]3C[C@H]3c3ccccc3)CC2)cc1` [GSK2879552], the IC50 in assay [5] is more than 100 µM; in the assay with MV4-11 [1] it was 1.19 µM; with RPMI-8226, more than 20 µM; in assay [8], more than 100 µM; in assay [9], more than 100 µM; in assay [10], more than 100 µM. The IC50 in assay [2] and in assay [3] was more than 100 µM in each case. The “fold change (FC)” value in assay [6] turned out to be 10.15. Moreover, the EC50 with MV4-11 [7] is 0.023 µM. Also, the outcome in the assay with MV4-11 [11] and in the assay on MV4-11 [12] was Active. In addition, the inhibition result in [13] is “Active”.
Take `O=S(=O)(c1ccccc1)N1CCc2cc(C3CC3NCC3CCN(Cc4ccccc4)CC3)ccc21` (trans isomer): in assay [3], the IC50 is more than 100 µM.
With `O=C(N[C@@H](CCCCNC1CC1c1ccccc1)C(=O)NCc1ccc(Cl)cc1)c1ccc(-c2ccccc2)cc1` (some centres not stated), the IC50 in assay [2] and in assay [3] was more than 100 µM each time.
